Structures can show the parent of a compound that is named as a salt.
Test system: THP-1 cells
Assay: cells
Type: cell-based
Conditions: Homo sapiens, THP-1, 96 h
Procedure: By analyzing the induction of CD11b membrane expression on THP-1 cells we are assessing the ability of LSD1 inhibitors to induce terminal monocytic differentiation of a MLL-AF9 AML cell line.
They carry t(9; 11)(p21; q23) leading to MLL-MLLT3 (MLL-AF9) fusion gene. This cell line can undergo monocytic differentiation upon treatment with the appropriate stimulus.
In this assay, 150,000 THP-1 cells were seeded in 1 ml of complete culture medium in 6-well tissue culture plates. Serial dilutions of the compounds were prepared in DMSO and then further diluted in complete medium to generate solutions of concentrations that are double of the final concentration at which the cells will be exposed. 1 ml of these 2× concentrated solutions was added to the cells.
Cells were kept in the presence of compounds for 96 h at a 5% CO2 atmosphere at 37° C. After this treatment period, cells were harvested, washed twice with PBS buffer and placed in a V-bottom 96-well plate. Each treated sample was split in two.
Percentage of CD11b positive cells, as an indicator of monocytic differentiation, was determined compared to isotype control antibody stained cells. EC50 values were calculated by non-linear regression analysis.

Row | Structure (SMILES) | EC50 [nM]
1 | c1ccc([C@H]2C[C@@H]2NC2CCNCC2)cc1 (racemic) [Example 1, N-((trans)-2-phenylcyclopropyl)piperidin-4-amine hydrochloride] | 2.1
2 | c1ccc([C@@H]2C[C@H]2NC2CCNCC2)cc1 [Example 3, N-((1R,2S)-2-phenylcyclopropyl)piperidin-4-amine hydrochloride] | 0.8

From US10329256B2, “(Hetero)aryl cyclopropylamine compounds as LSD1 inhibitors” (Oryzon Genomics, S.A., priority 2011, dated 2019)
